Results reported in US20020152038A1, “Selection method for aroma substances” (priority 2000, published 2002).
Like-named read-outs stand apart in the source and are kept apart here.

Experiments:
[1] = according to COSMO-RS correlation
[2] = according to COSMO-RS correlation; remark: listed apart in the source
[3] = Headspace above the lemonade, SPME, relative partition parameters; assay type: physicochemical
Description: (§1) The procedure is analogous in all examples.
The example reflects the taste impression which is perceived from via the olfactory epithelium, when enjoying a lemonade drink. The mixture of 39 odorants is incorporated into the above-mentioned lemonade drink (1) in an amount of 0.05%. 50 g of the lemonade drink are transferred to a 100 ml Erlenmeyer flask sealed with a septum and left to stand for 2 h at 35° C. with gentle stirring. The headspace above the lemonade is extracted using a SPME over 15 min. […] The analytical results are then used mathematically as described above.

[4] = Headspace above the milkshake, SPME-GC, relative partition parameters; assay type: physicochemical
Description: as §1
The example reflects the taste impression which is perceived via the olfactory epithelium, when enjoying a milkshake. The milkshake is prepared as is generally customary. The mixture of 39 aroma substances is incorporated into the abovementioned milk product (1) in an amount of 0.2%. 50 g of this mixture are transferred to a 100 ml Erlenmeyer flask sealed with a septum and left to stand for 2 h at 35° C. with gentle stirring. The headspace above the mixture is extracted over 15 min using solid phase microextraction (SPME). The SPME needle is desorbed in a GC injector, and a gas chromatogram is recorded. […] The analytical results are then used mathematically as described above.

[5] = headspace vs lemonade, 0.05% odorant mixture, 2 h at 35° C., SPME 15 min
[6] = headspace vs milkshake, 0.2% aroma mixture, 2 h at 35° C., SPME 15 min

Compound	Differences (Activity minus Prediction, lemonade) [1]	Differences (Activity minus Prediction, milkshake) [2]	Activity (logarithmic partition parameter above lemonade) [3, 5]	Activity (logarithmic partition parameter above a milkshake) [4, 6]	Activity (logarithmic partition parameter above lemonade) [3]	Activity (logarithmic partition parameter above a milkshake) [4]
OCCc1ccccc1 [PEA, phenylethyl alcohol]	0.272	0.225	0.001	0.188		
OCc1ccccc1 [Benzyl alcohol]	−0.783	−0.391	−1.955	−0.819		
C=CC(C)CCCC(C)(C)O (centres unmarked) [Dihydromyrcenol]	0.513	0.135	0.334	0.432		
Caryophyllene					0.827	1.132
CC1=CCC2CC1C2(C)C (stereo not drawn) [alpha-Pinene]	−0.110	0.067	0.363	1.078		
CC(C)=CCC/C(C)=C/CO [Geraniol]			−0.413	−0.053		
CC(C)=CCCC(C)CCO (centres unmarked) [Citronellol]	0.207	0.138	0.044	0.199		
CCOC(=O)c1ccccc1C(=O)OCC [Diethyl phthalate]	−1.693	−0.553	−1.895	−1.607		
C=CCc1ccc(O)c(OC)c1 [Eugenol]	0.454	0.528	−0.841	−0.557		
CC(C)CCOC(=O)c1ccccc1O [Isoamyl salicylate]	0.201	0.215	−0.462	−0.528		
CC(=O)OC(C)(C)Cc1ccccc1 [DMBCA, dimethylbenzylcarbinyl acetate]	0.898	0.537	0.523	0.378		
CC(=O)OCC=C(C)C [Prenyl acetate]	−1.038	−0.864	0.151	0.413		
CC(=O)O[C@@H]1C[C@H]2CC[C@]1(C)C2(C)C (racemic) [Isobornyl acetate]	0.587	0.480	0.994	0.707		
CC(=O)OCc1ccccc1 [Benzyl acetate]	0.552	0.515	0.086	0.306		
CC(=O)/C=C/C1C(C)=CCCC1(C)C (stereo not drawn) [Ionone, α, Ionone, alpha]	−0.060	0.158	0.024	−0.001		
CCCCCC/C(C=O)=C\c1ccccc1 [Hexylcinnamaldehyde, α]	−0.710	−0.674	−1.911	−1.949		
CC(=O)OC(C)c1ccccc1 (centres unmarked) [Styrolyl acetate]	0.641	0.554	0.312	0.402		
CC(C=O)Cc1ccc(C(C)(C)C)cc1 (centres unmarked) [Lilial]	0.074	0.135	−0.656	−0.690		
C[C@@H]1CC[C@H]2C(C)(C)[C@H]3C[C@@]12CC[C@@]3(C)O [Cedrol]	0.196	−0.025	−0.895	−1.077		
CC(=O)/C=C/C1=C(C)CCCC1(C)C [Ionone, β, Ionone, beta]	0.072	0.047	−0.061	−0.154		
CC(=O)O[C@]1(C)CC[C@@]23C[C@@H]1C(C)(C)[C@@H]2CC[C@H]3C [Cedryl acetate]					−1.653	−1.690
C=C1CCC2CC1C2(C)C (stereo not drawn) [Beta-Pinene]	−0.189	−0.082	0.485	1.029		
C=C(C)[C@H]1CC=C(C)CC1 [Limonene D]	0.072	−0.090	0.925	1.088		
CC1=CCC(C(C)C)=CC1 [gamma-Terpinene]	0.411	−0.004	1.032	1.064		
C=CC(C)(O)CCC=C(C)C (centres unmarked) [Linalool]	0.246	−0.231	0.141	0.225		
O=c1ccc2ccccc2o1 [Coumarin]	0.162	0.244				
C=C1C2CCC(C2)C1(C)C (centres unmarked) [Camphene]	−0.226	−0.169	0.465	0.985		
CC(=O)OC(C)(C)C1CC=C(C)CC1 (centres unmarked) [Terpinyl acetate]					0.644	0.418
CC(CC=O)CCCC(C)(C)O (centres unmarked) [Hydroxycitronellal]	−1.868	−1.369	−1.879	−1.679		
O=C(OCc1ccccc1)c1ccccc1O [Benzyl salicylate]	−0.340	−1.057	−3.037	−3.313		
